Measured values as given in US20120082736A1, “Small-molecule TNF modulator to reduce the side effects of chemotherapy and radiotherapy” (GeneBlue Corporation, priority 2010, published 2012).
“Also recorded” adds a separate entry of the source.

Assays:
TNF-α = TNF-α levels in plasma of cisplatin-treated mice (commercial assay kit, eBioscience); format: in vivo; settings: UTL-5g 15, 30, 60 mg/kg ip 30 min before cisplatin 2.5 mg/kg, daily ×5; pooled plasma
Description: FIG. 5. Effect of UTL-5g on TNF-α levels in plasma for mice treated with cisplatin. Gp 1, medium control (saline) only; Gp 2, saline followed by cisplatin (2.5 mg/kg) 30 min later; Gp 3, UTL-5g (15 mg/kg) followed by cisplatin 30 min later; Gp 4, UTL-5g (30 mg/kg) followed by cisplatin 30 min later; Gp 5, UTL-5g (60 mg/kg) followed by cisplatin 30 min later. Y axis represents the relative levels of TNF-α assuming 0% for Gp 1 (Control). Level of TNF-α on the figure is based on the average of 2 readings. […]
Using the samples from the same animal study, TNF-α levels in plasma were analyzed. […]

[1] = system: C57BL/6 mice, liver irradiation; test: Liver irradiation: serum AST and ALT activities (Examples 5-7); format: in vivo
Description: FIG. 8. Effect of UTL compounds on AST and ALT with and without radiation C57BL/6 male mice were treated with UTL-5b, -5d, and -5g each in 0.3 mL vehicle containing DMSO/(Cremophor:propylene glycol 4:6 v/v)/saline, 5/5/90 v/v by i.p. injection (30 mg/kg) 1 hr prior to liver irradiation with 15 Gy. Serum was obtained at 2 hr after irradiation and assayed for AST and ALT activities. Data are means±standard deviation (S.D.) * indicates p<0.05, n=4.
Mice were treated with various doses of UTL-5g (3.75, 7.5, 15, 30, and 60 mg/kg, i.p.) 1 hr prior to liver radiation with 15 Gy. Serum was obtained at 2 hr after irradiation and assayed for AST (4a) and ALT activities (4b).
FIG. 11. Radiation dose escalation and radioprotection by UTL-5 g Mice were pre-treated with UTL-5g (60mg/kg, i.p.) at 1 hr prior to radiation dose escalation (0, 5, 15, and 25 Gy). Serum was harvested at 2 hr after injections and was subjected to AST/ALT measurements as described in Methods. Results were compared to control mice received control vehicle. Data are means±standard deviation (* p<0.05, 2-tailed paired t-Test comparing treated and untreated groups, n=4).
In a preliminary study, three UTL compounds (5b, 5d and 5g) were examined for their radioprotective effect in C57BL/6 mice. One hr prior to liver irradiation (15 Gy), animals were treated with the test compounds by i.p. injection (30 mg/kg). Two hr later, the animals were sacrificed and serum AST and ALT enzyme activities were determined.
During the preliminary study, it was found unexpectedly that the vehicle used, DMSO/(Cremophor:propylene glycol […])/saline 5:5:90 v/v was associated with some liver toxicity as indicated by the moderate increase of serum AST and ALT activities in animals treated with vehicle alone.
Based on the preliminary studies, UTL-5g was selected for dose-dependent radioprotective studies. In this study, animals were treated with increasing doses of UTL-5g (from 0 to 60 mg/kg) one hr prior to liver irradiation (15 Gy). Two hr after irradiation, animals were sacrificed and serum AST/ALT enzyme activities and liver TNF-α levels were determined. […] For animals pre-treated with UTL-5g at 30 mg/kg, AST/ALT activity levels were lowered from 135/29 to 89/22 Unit/L, and those pre-treated with UTL-5g at 60 mg/kg, AST/ALT levels were reduced from 135/29 to 74/19 Unit/L, respectively.
Next, we investigated the radioprotective effect of UTL-5g with increased irradiation doses. In this study, animals were pre-treated with UTL-5g at 60 mg/kg and randomly divided into 4 groups. One hr later, they were subjected to liver irradiation at 0, 5, 15 and 25 Gy. Consistent with the previous study, pretreatment with UTL-5 g at 60 mg/kg was radioprotective against 15 Gy as evidenced by the reduction of serum AST activity (103.0 vs. 159.8 Unit/L in UTL-5g and in control vehicle groups, respectively) and ALT activity (17.8 vs. 32.3 Unit/L in UTL-5g and in control vehicle groups respectively) (FIG. 11).

apoptotic liver cells = test: TUNEL assay for apoptotic liver cells after liver irradiation (Example 8); format: in vivo, mice; settings: for numbers of TUNEL positive cells induced by irradiation: 15 Gy, relative to non-irradiated controls, irradiated vehicle 4.1
Description: Mice were pre-treated with various doses of UTL-5g (7.5, 15, 30, and 60 mg/kg, i.p.) or control vehicle at 1 hr prior to liver radiation with 15 Gy. […] Representative liver sections showing TUNEL positive cells (green) counter-stained with […] (4′-6-diamidino-2-phenylindole) for nuclei under fluorescent microscope (40×) (6B). RT: radiation treatment.
To further analyze the radioprotective effect of UTL-5g, we examined the number of liver apoptotic cells by in situ TUNEL staining At the end of treatment, liver tissue sections were prepared, fixed and stained with TUNEL staining for apoptotic cells. There were “spontaneous” apoptotic liver cells in control animals as detected by TUNEL staining (20/five random fields), approximately 0.2% of total liver cells. […] The radioprotective effect of UTL-5g was dose-dependent.

In the case of `Cc1cc(C(=O)Nc2ccc(Cl)cc2Cl)no1` [UTL-5g], the “TNF-α in plasma, effect of pretreatment” value (TNF-α) is reported as “lowered elevated TNF-α in plasma in a dose-dependent manner; also recorded: lowered the elevated levels of blood TNF-α induced by cisplatin in a dose dependent manner”, the “serum AST and ALT levels induced by irradiation” value ([1]; 30 mg/kg i.p. 1 hr prior to liver irradiation 15 Gy, serum 2 hr after, C57BL/6 mice, preliminary study) is reported as “the most effective in lowering both AST and ALT enzyme activities” and the “serum AST/ALT activities, dose dependence” value ([1]; UTL-5g 0 to 60 mg/kg i.p. 1 hr before liver irradiation 15 Gy, serum 2 hr after) is reported as “significantly reduced serum AST/ALT activities in a drug dose-dependent manner”. For the same compound, the “serum ALT activity” value ([1]; UTL-5g 30 mg/kg 1 hr before 15 Gy, irradiated vehicle 29 (Example 6)) was 22 Unit/L, the “serum AST activity” value ([1]; UTL-5g 30 mg/kg 1 hr before 15 Gy, irradiated vehicle 135 (Example 6)) was 89 Unit/L and the “AST and ALT levels” value ([1]; UTL-5g 60 mg/kg 1 hr before 5 Gy) was “slightly but not significantly changed”. For the same compound, the “serum ALT activity” value ([1]; UTL-5g 60 mg/kg 1 hr before 15 Gy, control vehicle 32.3 (Example 7)) was 17.8 Unit/L, the “serum AST activity” value ([1]; UTL-5g 60 mg/kg 1 hr before 15 Gy, control vehicle 159.8 (Example 7)) was 103.0 Unit/L and the “serum ALT activity” value ([1]; UTL-5g 60 mg/kg 1 hr before 15 Gy, irradiated vehicle 29 (Example 6)) was 19 Unit/L. The “serum AST activity” value ([1]; UTL-5g 60 mg/kg 1 hr before 15 Gy, irradiated vehicle 135 (Example 6)) was 74 Unit/L, the “radioprotection (AST/ALT)” value ([1]; UTL-5g 60 mg/kg 1 hr before 25 Gy) was “only moderate protection” and the “AST and ALT enzyme activities without irradiation” value ([1]; UTL-5g 60 mg/kg alone, animals without irradiation) was “slightly increased”. For the same compound, the “TUNEL positive cells, protective effect” value (apoptotic liver cells; UTL-5g 7.5 mg/kg i.p. 1 hr prior to 15 Gy, liver 2 hr after) was “no significant protective effect”, the “numbers of TUNEL positive cells induced by irradiation” value (“numbers” for short) (apoptotic liver cells; UTL-5g 15 mg/kg) was 3.3 fold and the “numbers” value (apoptotic liver cells; UTL-5g 30 mg/kg) was 1.8 fold. For the same compound, the “numbers” value (apoptotic liver cells; UTL-5g 60 mg/kg) was 1.4 fold and the “number of apoptotic cells in liver, non-irradiated animals” value (apoptotic liver cells; UTL-5g alone at 30 and 60 mg/kg, no irradiation) was “slightly increased the number of apoptotic cells”.
